The target in one assay is human MLKL (full length) (Homo sapiens (Human), UniProt Q8NB16). Kind of assay: KINOMEscan binding assay, human MLKL (full length). Conditions: hMLKL, Table 25; read-out: MLKL (KD). The essentials:
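Active-site competition binding: DNA-tagged kinase (T7 phage fusion from BL21-derived E. coli lysate, or HEK-293-expressed) captured on immobilized-ligand beads, with bound kinase in the eluate quantified by qPCR. Compounds ran as 11-point 3-fold dilutions, 1% DMSO, top 30,000 nM for most. Kd came from a Hill fit (slope −1).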

The subject of assay [1] is Immortalised Mouse Dermal Fibroblasts (MDFs). Description: Cellular assay: inhibition of TSI induced necroptosis, CellTitre-Glo viability. To be noted: Mus musculus, Fibroblast; MDF, 3 hours TSI cocktail, Table 27; read-out: Inhibition of TSI-induced necroptosis (IC50 cell-based assay) in MDF. The essentials:
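Necroptosis induced for 3 h with TSI: rhTNF 100 ng/ml, Smac mimetic 500 nM, caspase inhibitor IDN-6556 10 μM. Mouse dermal fibroblasts had received compound (36 μM top, ten three-fold steps) 30 min beforehand. ATP-based viability scaled between untreated and TSI-only wells; IC50 taken as 4-parameter curve inflection.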

The target of the next assay is endogenous MLKL in MDF (Mus musculus (Mouse), UniProt Q9D2Y4). Kind of assay: Degradation assay: endogenous MLKL in MDF (western blot). To be noted: MDF cells, 24 h incubation with compound, MLKL adjusted for loading with GAPDH, normalized to DMSO only control, read-out: Degradation of endogenous MLKL in MDF (DC50 cell-based assay). The method in brief:
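Western blot band intensity of MLKL, adjusted to GAPDH loading and normalized to DMSO-only wells, gave percent degradation. Compound exposure lasted 24 h at final concentrations of 10–0.016 μM in 1:5 steps, in mouse dermal fibroblasts or human U937 cells.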
On the technique in general: In western blotting, separated proteins are transferred to a membrane and probed.

Ten compounds from US20250115598A1 (Anaxis Pharma Pty Ltd, priority 2021, published 2025) can be followed below.

Structures are written as SMILES. Bounds are passed on as bounds.

Chain of endogenous MLKL in MDF (Q9D2Y4 whole entry): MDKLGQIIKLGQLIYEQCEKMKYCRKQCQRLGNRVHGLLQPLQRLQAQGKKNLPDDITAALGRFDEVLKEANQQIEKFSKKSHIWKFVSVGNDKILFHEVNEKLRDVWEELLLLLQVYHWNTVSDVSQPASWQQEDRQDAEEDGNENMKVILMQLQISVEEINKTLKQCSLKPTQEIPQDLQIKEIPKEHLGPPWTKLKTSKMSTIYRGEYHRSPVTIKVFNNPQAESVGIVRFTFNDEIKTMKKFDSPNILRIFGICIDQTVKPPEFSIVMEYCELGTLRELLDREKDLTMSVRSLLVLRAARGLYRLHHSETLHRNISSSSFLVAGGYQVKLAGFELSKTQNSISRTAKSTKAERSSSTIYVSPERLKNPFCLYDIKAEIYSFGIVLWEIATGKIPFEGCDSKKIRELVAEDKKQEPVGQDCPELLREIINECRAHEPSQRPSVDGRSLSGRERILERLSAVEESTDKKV
Chain of human MLKL (full length) (Q8NB16 whole entry, the tested form may be a part): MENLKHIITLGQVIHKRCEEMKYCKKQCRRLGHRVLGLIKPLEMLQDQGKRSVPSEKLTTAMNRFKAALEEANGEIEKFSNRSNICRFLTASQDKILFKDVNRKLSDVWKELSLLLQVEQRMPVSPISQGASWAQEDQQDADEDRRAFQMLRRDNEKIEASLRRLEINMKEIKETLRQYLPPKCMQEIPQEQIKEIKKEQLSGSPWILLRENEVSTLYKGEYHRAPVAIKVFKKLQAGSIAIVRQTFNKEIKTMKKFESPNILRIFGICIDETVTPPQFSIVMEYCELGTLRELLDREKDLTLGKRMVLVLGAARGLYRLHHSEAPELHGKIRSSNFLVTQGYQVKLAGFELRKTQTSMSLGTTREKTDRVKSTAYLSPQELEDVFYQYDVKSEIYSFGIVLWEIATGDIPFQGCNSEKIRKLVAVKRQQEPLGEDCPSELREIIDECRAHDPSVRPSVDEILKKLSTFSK

The term Kd denotes the free concentration of one partner at which half of the binding sites on the other are occupied at equilibrium, for simple one-to-one binding. The IC50 is the concentration that gives 50% inhibition. One may read the DC50 as the concentration giving 50% degradation. With `Cc1ncsc1-c1ccc(CNC(=O)[C@@H]2C[C@@H](O)CN2C(=O)[C@@H](NC(=O)COCCOc2ccc(-c3cnc(N)c4c(-c5ccc(NS(=O)(=O)C(F)F)c(O[C@@H](C)c6ccc(F)cc6)c5)nn(C)c34)cc2)C(C)(C)C)cc1` [Compound 1049, (2S,4R)-1-[(2S)-2-{2-[2-(4-{4-amino-3-[4-(difluoromethanesulfonamido)-3-[(1S)-1-(4-fluorophenyl)ethoxy]phenyl]-1-methyl-1H-pyrazolo[4,3-c]pyridin-7-yl}phenoxy)ethoxy]acetamido}-3,3-dimethylbutanoyl]-4-hydroxy-N-{[4-(4-methyl-1,3-thiazol-5-yl)phenyl]methyl}pyrrolidine-2-carboxamide], the Kd on human MLKL (full length) was 0.01 to 1 µM. Further, in assay [1], the IC50 lay in the range of 1 to 10 µM. Moreover, the DC50 at endogenous MLKL in MDF was < 1 µM.

For `C[C@H](Oc1cc(-c2nn(C)c3c(-c4cnn(C5CCN(C(=O)[C@H]6CC[C@@H](Nc7cccc8c7C(=O)N(C7CCC(=O)NC7=O)C8=O)CC6)CC5)c4)cnc(N)c23)ccc1NS(=O)(=O)C(F)F)c1ccc(F)cc1` (stereo partly drawn) [Compound 1071], the Kd on human MLKL (full length) was < 0.01 µM. Besides, the IC50 in assay [1] was < 1 µM. The DC50 on endogenous MLKL in MDF is < 1 µM.

For the compound `C[C@H](Oc1cc(-c2nn(C)c3c(-c4cnn(C5CCN(C(=O)CCC6CCN(c7cc8c(cc7F)C(=O)N(C7CCC(=O)NC7=O)C8=O)CC6)CC5)c4)cnc(N)c23)ccc1NS(=O)(=O)C(F)F)c1ccc(F)cc1` (stereo partly drawn) [Compound 1087, N-[4-(4-amino-7-{1-[1-(3-{1-[2-(2,6-dioxopiperidin-3-yl)-6-fluoro-1,3-dioxo-2,3-dihydro-1H-isoindol-5-yl]piperidin-4-yl}propanoyl)piperidin-4-yl]-1H-pyrazol-4-yl}-1-methyl-1H-pyrazolo[4,3-c]pyridin-3-yl)-2-[(1S)-1-(4-fluorophenyl)ethoxy]phenyl]-1,1-difluoromethanesulfonamide], the Kd on human MLKL (full length) was 0.01 to 1 µM. For the same compound, in assay [1], the half-maximal inhibitory concentration (IC50) was < 1 µM. The DC50 on endogenous MLKL in MDF was < 1 µM.

Turning to `C[C@H](Oc1cc(-c2nn(C)c3c(-c4cnn(C5CCN(C(=O)[C@]6(F)C[C@H](Nc7cccc8c7C(=O)N(C7CCC(=O)NC7=O)C8=O)C6)CC5)c4)cnc(N)c23)ccc1NS(=O)(=O)C(F)F)c1ccc(F)cc1` (stereo partly drawn) [Compound 1110, N-{4-[4-amino-1-methyl-7-(1-{1-[(trans)-3-{[2-(2,6-dioxopiperidin-3-yl)-1,3-dioxo-2,3-dihydro-1H-isoindol-4-yl]amino}-1-fluoro-cyclobutanecarbonyl]piperidin-4-yl}-1H-pyrazol-4-yl)-1H-pyrazolo[4,3-c]pyridin-3-yl]-2-[(1S)-1-(4-fluorophenyl)ethoxy]phenyl}-1,1-difluoromethanesulfonamide], the Kd at human MLKL (full length) is < 0.01 µM. Also, the IC50 in assay [1] is < 1 µM. Besides, the DC50 at endogenous MLKL in MDF was < 1 µM.

On to `C[C@H](Oc1cc(-c2nn(C)c3c(-c4cnn(C5CCN(C(=O)[C@]6(F)C[C@@H](Nc7cccc8c7C(=O)N(C7CCC(=O)NC7=O)C8=O)C6)CC5)c4)cnc(N)c23)ccc1NS(=O)(=O)C(F)F)c1ccc(F)cc1` (stereo partly drawn) [Compound 1111, N-{4-[4-amino-1-methyl-7-(1-{1-[(cis)-3-{[2-(2,6-dioxopiperidin-3-yl)-1,3-dioxo-2,3-dihydro-1H-isoindol-4-yl]amino}-1-fluorocyclobutane-carbonyl]piperidin-4-yl}-1H-pyrazol-4-yl)-1H-pyrazolo[4,3-c]pyridin-3-yl]-2-[(1S)-1-(4-fluorophenyl)ethoxy]phenyl}-1,1-difluoro-methanesulfonamide], for which the Kd at human MLKL (full length) was 0.01 to 1 µM. Also, in assay [1], the IC50 was < 1 µM. Also, the DC50 on endogenous MLKL in MDF was < 1 µM.

Turning to `C[C@H](Oc1cc(-c2nn(C)c3c(-c4cnn(C5CCN(C(=O)[C@H]6C[C@H](Nc7ccc8c(c7)C(=O)N(C7CCC(=O)NC7=O)C8=O)C6)CC5)c4)cnc(N)c23)ccc1NS(=O)(=O)C(F)F)c1ccc(F)cc1` (stereo partly drawn) [Compound 1094, N-{4-[4-amino-1-methyl-7-(1-{1-[(trans)-3-{[2-(2,6-dioxopiperidin-3-yl)-1,3-dioxo-2,3-dihydro-1H-isoindol-5-yl]amino}cyclobutanecarbonyl]piperidin-4-yl}-1H-pyrazol-4-yl)-1H-pyrazolo[4,3-c]pyridin-3-yl]-2-[(1S)-1-(4-fluorophenyl)ethoxy]phenyl}-1,1-difluoromethanesulfonamide], the Kd at human MLKL (full length) was < 0.01 µM. The IC50 in assay [1] was < 1 µM. In addition, the DC50 on endogenous MLKL in MDF is < 1 µM.

As to `C[C@H](Oc1cc(-c2nn(C)c3c(-c4cnn(C5CCN(C(=O)C6CC(N(C)c7cccc8c7C(=O)N(C7CCC(=O)NC7=O)C8=O)C6)CC5)c4)cnc(N)c23)ccc1NS(=O)(=O)C(F)F)c1ccc(F)cc1` (stereo partly drawn) [Compound 1119, N-{4-[4-amino-1-methyl-7-(1-{1-[(trans)-3-{[2-(2,6-dioxopiperidin-3-yl)-1,3-dioxo-2,3-dihydro-1H-isoindol-4-yl](methyl)amino}cyclobutanecarbonyl]piperidin-4-yl}-1H-pyrazol-4-yl)-1H-pyrazolo[4,3-c]pyridin-3-yl]-2-[(1S)-1-(4-fluorophenyl)ethoxy]phenyl}-1,1-difluoromethanesulfonamide], the Kd at human MLKL (full length) was < 0.01 µM. For the same compound, in assay [1], the IC50 is < 1 µM. The DC50 on endogenous MLKL in MDF was < 1 µM.

`C[C@H](Oc1cc(-c2nn(C)c3c(-c4cnn(C5CCN(C(=O)CC6CCN(c7cccc8c7C(=O)N(C7CCC(=O)NC7=O)C8=O)C6)CC5)c4)cnc(N)c23)ccc1NS(=O)(=O)C(F)F)c1ccc(F)cc1` (stereo partly drawn) [Compound 1053, N-[4-(4-amino-7-{1-[1-(2-{1-[2-(2,6-dioxopiperidin-3-yl)-1,3-dioxo-2,3-dihydro-1H-isoindol-4-yl]pyrrolidin-3-yl}acetyl)piperidin-4-yl]-1H-pyrazol-4-yl}-1-methyl-1H-pyrazolo [4,3-c]pyridin-3-yl)-2-[(1S)-1-(4-fluorophenyl)ethoxy]phenyl]-1,1-difluoromethanesulfonamide]: the Kd on human MLKL (full length) lay within 0.01 to 1 µM. Moreover, the IC50 in assay [1] was < 1 µM. Moreover, the DC50 on endogenous MLKL in MDF is < 1 µM.

For the compound `C[C@H](Oc1cc(-c2nn(C)c3c(-c4cnn(C5CCC(C(=O)N6CC(Nc7cccc8c7C(=O)N(C7CCC(=O)NC7=O)C8=O)C6)CC5)c4)cnc(N)c23)ccc1NS(=O)(=O)C(F)F)c1ccc(F)cc1` (stereo partly drawn) [Compound 1133, N-[4-(4-amino-7-{1-[4-(3-{[2-(2,6-dioxopiperidin-3-yl)-1,3-dioxo-2,3-dihydro-1H-isoindol-4-yl]amino}azetidine-1-carbonyl)cyclohexyl]-1H-pyrazol-4-yl}-1-methyl-1H-pyrazolo[4,3-c]pyridin-3-yl}-2-[(1S)-1-(4-fluorophenyl)ethoxy]phenyl]-1,1-difluoromethanesulfonamide], the Kd at human MLKL (full length) fell in the range of 0.01 to 1 µM. Moreover, the IC50 in assay [1] is 1 to 10 µM. Moreover, the DC50 at endogenous MLKL in MDF is < 1 µM.

For `C[C@H](Oc1cc(-c2nn(C)c3c(-c4cnn(C5CCN(C(=O)C6CN(c7cccc8c7C(=O)N(C7CCC(=O)NC7=O)C8=O)CCO6)CC5)c4)cnc(N)c23)ccc1NS(=O)(=O)C(F)F)c1ccc(F)cc1` (stereo partly drawn) [Compound 1070, N-(4-{4-amino-7-[1-(1-{4-[2-(2,6-dioxopiperidin-3-yl)-1,3-dioxo-2,3-dihydro-1H-isoindol-4-yl]morpholine-2-carbonyl}piperidin-4-yl)-1H-pyrazol-4-yl]-1-methyl-1H-pyrazolo[4,3-c]pyridin-3-yl}-2-[(1S)-1-(4-fluorophenyl)ethoxy]phenyl)-1,1-difluoromethanesulfonamide], the Kd at human MLKL (full length) is 0.01 to 1 µM. The IC50 in assay [1] was < 1 µM. For the same compound, the half-maximal degradation concentration (DC50) at endogenous MLKL in MDF was < 1 µM.
